For ten compounds, TGI and GI50 results are on record in PubChem BioAssay (NCI).

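In this assay, cells in 96-well plates receive the compound at five concentrations for 48 hours. Endpoints are linearly interpolated between the surrounding concentrations. GI50 = concentration required for 50% inhibition of growth. The concentration for full growth arrest is given as TGI.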 Bounds are passed on as bounds.

Test systems include EKVX NSCLC; SF-268 CNS; RPMI-8226 leukemia; SNB-75 CNS; OVCAR-5 ovarian; OVCAR-3 ovarian; CCRF-CEM leukemia; OVCAR-4 ovarian; HOP-62 NSCLC; U251 CNS.
Experiment in all cases: NCI anticancer screen, dose series, 48 h

Take `Clc1ccc(Cc2nc3ccccc3s2)c(Cl)c1`: the TGI is 42.1 µM with EKVX NSCLC; 30.5 µM in the test on SF-268 CNS; 48.5 µM with RPMI-8226 leukemia; 34.5 µM in the test on SNB-75 CNS; 38.7 µM with OVCAR-5 ovarian; 33 µM in the test with OVCAR-3 ovarian. The figures for the TGI with CCRF-CEM leukemia, in the test with OVCAR-4 ovarian and in the test with HOP-62 NSCLC were 22.7 µM, 27 µM and 32.9 µM, respectively.

On to `CC1CCP(=O)(c2ccccc2)c2ccccc21` (stereo unspecified), for which the TGI with EKVX NSCLC was above 100 µM; in the test on RPMI-8226 leukemia, above 100 µM; in the test on SNB-75 CNS, above 100 µM; in the test on OVCAR-5 ovarian, above 100 µM; in the test on U251 CNS, 53.3 µM; in the test with OVCAR-3 ovarian, above 100 µM. In addition, the TGI in the test on CCRF-CEM leukemia, in the test with OVCAR-4 ovarian and in the test with HOP-62 NSCLC was above 100 µM in each case.

For the compound `COc1ccc(NC(=O)C(=O)Cc2nc3ccc([N+](=O)[O-])cc3[nH]c2=O)c(OC)c1`, the TGI in the test on EKVX NSCLC, in the test with SNB-75 CNS, with OVCAR-5 ovarian, in the test on OVCAR-3 ovarian, in the test with CCRF-CEM leukemia and in the test on OVCAR-4 ovarian was above 100 µM in each case.

For `COc1cc(/C=C\c2ccccc2)cc(OC)c1OC`, the TGI in the test on EKVX NSCLC is above 84.9 µM; in the test on SF-268 CNS, 59.2 µM; in the test with RPMI-8226 leukemia, 46.2 µM; in the test with SNB-75 CNS it was 6.9 µM; in the test with OVCAR-5 ovarian it was 47.3 µM; in the test on U251 CNS it was 29.4 µM. Further, the TGI with OVCAR-3 ovarian is 5.58 µM; in the test with CCRF-CEM leukemia, 49.8 µM; in the test with OVCAR-4 ovarian it was above 61 µM; in the test on HOP-62 NSCLC, 23.5 µM.

With `COc1cc2c(c(OC)c1OC)-c1ccc(N)c(=O)cc1[C@@H](NC(C)=O)CC2`, the GI50 in the test with EKVX NSCLC was 0.0808 µM; in the test with SF-268 CNS, 0.0339 µM; in the test on RPMI-8226 leukemia, 0.0456 µM; in the test with OVCAR-5 ovarian, 0.202 µM; with U251 CNS, 0.0302 µM; in the test with OVCAR-3 ovarian it was below 0.012 µM. Besides, the GI50 was below 0.0147 µM in the test with CCRF-CEM leukemia, 0.0542 µM in the test with OVCAR-4 ovarian and 0.0426 µM in the test on HOP-62 NSCLC. Besides, the TGI in the test with EKVX NSCLC was above 100 µM; in the test with SF-268 CNS, above 100 µM; with RPMI-8226 leukemia it was above 100 µM; with OVCAR-5 ovarian, above 100 µM; in the test with U251 CNS it was above 100 µM; with OVCAR-3 ovarian, 0.0362 µM. Also, the TGI with CCRF-CEM leukemia, with OVCAR-4 ovarian and in the test with HOP-62 NSCLC was above 100 µM each time.

Take `CCCCCCCCCCCCCCN`: the TGI in the test on EKVX NSCLC, with SF-268 CNS, in the test with RPMI-8226 leukemia, in the test on SNB-75 CNS, in the test with OVCAR-5 ovarian and in the test with U251 CNS was above 100 µM throughout. Besides, the TGI in the test with OVCAR-3 ovarian, in the test with CCRF-CEM leukemia, in the test with OVCAR-4 ovarian and in the test on HOP-62 NSCLC was above 100 µM throughout.

Regarding `O=C1c2ccc([N+](=O)[O-])cc2-c2c1c1ccccc1c(=O)n2CCCNCCCNCCCn1c2c(c3ccc([N+](=O)[O-])cc3c1=O)C(=O)c1ccccc1-2`, the GI50 in the test on EKVX NSCLC is 8.76 µM; in the test with SF-268 CNS, 0.988 µM; in the test with RPMI-8226 leukemia, 0.258 µM; in the test with SNB-75 CNS, 0.427 µM; in the test with OVCAR-5 ovarian, 3.05 µM; in the test on U251 CNS, 3.42 µM. Besides, the GI50 was 2.2 µM with OVCAR-3 ovarian, 1.77 µM with CCRF-CEM leukemia, 1.06 µM in the test with OVCAR-4 ovarian and 1.85 µM in the test with HOP-62 NSCLC. For the same compound, the TGI in the test on EKVX NSCLC amounted to 32.1 µM; with SF-268 CNS it was 12.8 µM; with RPMI-8226 leukemia, 0.82 µM; with SNB-75 CNS, 5.54 µM; in the test with OVCAR-5 ovarian it was 11.3 µM; in the test with U251 CNS, 15.3 µM. The TGI is 6.16 µM in the test with OVCAR-3 ovarian, 5.62 µM with CCRF-CEM leukemia, 2.88 µM in the test on OVCAR-4 ovarian and 12.4 µM in the test on HOP-62 NSCLC.

As for `O=C(/C=C/C12c3ccccc3C(c3ccccc31)C1C(=O)N(c3ccccc3)C(=O)C12)c1ccccc1` (stereo unspecified), the GI50 was 2.09 µM in the test with EKVX NSCLC; 8.56 µM with SF-268 CNS; 1.55 µM with RPMI-8226 leukemia; 2.39 µM in the test with SNB-75 CNS; 1.91 µM in the test on OVCAR-5 ovarian; 2.48 µM in the test on U251 CNS. Further, the GI50 was 2.22 µM in the test on OVCAR-3 ovarian, 1.45 µM with CCRF-CEM leukemia, 2.94 µM with OVCAR-4 ovarian and 3.23 µM in the test on HOP-62 NSCLC. The TGI with EKVX NSCLC is above 100 µM; in the test with SF-268 CNS, above 100 µM; in the test with RPMI-8226 leukemia, 7.69 µM; with SNB-75 CNS, above 100 µM; in the test with OVCAR-5 ovarian, 5.02 µM; with U251 CNS it was 9.44 µM. Further, the TGI with OVCAR-3 ovarian was 7.09 µM; in the test on CCRF-CEM leukemia it was above 100 µM; with OVCAR-4 ovarian it was above 100 µM; in the test with HOP-62 NSCLC, 14.6 µM.

`CCOC(=O)C1(Br)C(c2ccccc2)NC(=O)NC1(C)Br` (stereo unspecified): the TGI with EKVX NSCLC is above 100 µM; with SF-268 CNS, above 100 µM; in the test with RPMI-8226 leukemia it was above 88.9 µM; with SNB-75 CNS, above 100 µM; in the test on OVCAR-5 ovarian, above 100 µM; in the test with U251 CNS, 49.4 µM. In addition, the TGI with OVCAR-3 ovarian is above 100 µM; in the test on CCRF-CEM leukemia it was 99.8 µM; in the test on OVCAR-4 ovarian, above 100 µM; in the test with HOP-62 NSCLC it was above 100 µM. Also, the GI50 in the test on OVCAR-4 ovarian is 30.3 µM.

As to `O=C(c1ccc2ccccc2c1)c1c(C(F)(F)F)n([O-])c2cc(F)c(F)cc2[n+]1=O`, the GI50 in the test on EKVX NSCLC was 2.46 µM; in the test on SF-268 CNS it was 3.36 µM; with RPMI-8226 leukemia, 1.12 µM; in the test with SNB-75 CNS it was 4.29 µM; in the test on OVCAR-5 ovarian, 2.01 µM; in the test with OVCAR-3 ovarian, 1.46 µM. Besides, the GI50 is 1.33 µM in the test with CCRF-CEM leukemia, 13 µM in the test with OVCAR-4 ovarian and 5.02 µM in the test with HOP-62 NSCLC. Also, the TGI was determined as 6.43 µM in the test with EKVX NSCLC; 19.5 µM in the test on SF-268 CNS; 3.79 µM with RPMI-8226 leukemia; 15 µM in the test on SNB-75 CNS; 4.4 µM in the test on OVCAR-5 ovarian; 2.98 µM in the test with OVCAR-3 ovarian. The TGI in the test with CCRF-CEM leukemia turned out to be 3.63 µM; in the test on OVCAR-4 ovarian it was 27.2 µM; in the test with HOP-62 NSCLC, 16.8 µM.
